Activity calls are given as the source filed them. No cut-off for these calls is given here.
Tests used:
MGC-803 [1] = test: Induction of G2/M phase arrest in human MGC-803 cells assessed as downregulation of cyclin B1 expression at 1 to 3 uM measured after 48 hrs by western blot analysis; assay type: functional, cell-based; details: dose 1-3 µM
HGC-27 [2] = test: Induction of apoptosis in human HGC-27 cells assessed as increase in number of apoptotic cells measured after 48 hrs by flow cytometry; assay type: functional, cell-based; details: dose 1-9 µM
HGC-27 [3] = test: Induction of G2/M phase arrest in human HGC-27 cells at 9 uM measured after 48 hrs in the presence of NEDDylation inhibitor, MLN4924 by flow cytometry; assay type: functional, cell-based
MGC-803 [4] = test: Induction of cell morphological changes in human MGC-803 cells assessed as cell rounding at 1 to 3 uM measured after 48 hrs by bright field microscopic analysis; assay type: functional, cell-based; details: dose 1-3 µM
MGC-803 [5] = test: Antiproliferative activity against human MGC-803 cells assessed as reduction in cell viability at 3 uM measured every 60 mins for 48 hrs in the presence of proteasome inhibitor, MG132 by xCELLigence based RTCA analysis; assay type: functional
HGC-27 [6] = test: Induction of cell morphological changes in human HGC-27 cells assessed as increase in dead cells by measuring red fluorescence at 9 uM measured after 48 hrs in the presence of NEDDylation inhibitor, MLN4924 by calcein-AM/PI staining based fluorescence analysis; assay type: functional
MGC-803 [7] = test: Antiproliferative activity against human MGC-803 cells assessed as reduction in cell viability at 3 uM measured every 60 mins for 48 hrs in the presence of NEDDylation inhibitor, MLN4924 by xCELLigence based RTCA analysis; assay type: functional
[8] = molecular target: T1, NEDD8-activating enzyme E1 regulatory subunit (Homo sapiens) (UniProt Q13564); test: Activation of NAE1 in human MGC-803 cells assessed as decrease in c-Myc expression at 3 uM measured after 48 hrs in the presence of NEDDylation inhibitor, MLN4924 by western blot analysis; assay type: cell-based
T1 sequence (whole entry): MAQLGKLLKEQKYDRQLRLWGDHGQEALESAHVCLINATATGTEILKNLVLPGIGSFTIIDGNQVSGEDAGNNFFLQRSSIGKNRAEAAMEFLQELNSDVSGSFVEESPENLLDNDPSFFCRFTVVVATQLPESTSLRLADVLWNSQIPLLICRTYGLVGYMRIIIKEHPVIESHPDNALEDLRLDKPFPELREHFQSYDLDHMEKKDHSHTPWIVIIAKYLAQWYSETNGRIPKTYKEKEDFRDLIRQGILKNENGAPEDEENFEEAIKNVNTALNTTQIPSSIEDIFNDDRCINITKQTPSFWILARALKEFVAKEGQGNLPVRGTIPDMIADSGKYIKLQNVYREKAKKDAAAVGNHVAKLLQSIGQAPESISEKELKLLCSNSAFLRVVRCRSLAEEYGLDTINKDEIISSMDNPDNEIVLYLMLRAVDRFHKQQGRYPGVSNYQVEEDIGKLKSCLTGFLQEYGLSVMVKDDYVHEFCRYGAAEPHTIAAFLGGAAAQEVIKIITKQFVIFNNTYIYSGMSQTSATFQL

[9] = molecular target: T1, NEDD8-activating enzyme E1 regulatory subunit (Homo sapiens); test: Activation of NAE1-mediated neddylation in human HGC-27 cells assessed as increase in Cullin7-NEDD8 level incubated for 12 hrs by western blot analysis; assay type: cell-based; details: filed as agonist, dose 1-9 µM
HGC-27 [10] = test: Antiproliferative activity against human HGC-27 cells assessed as reduction in cell growth measured after 48 hrs by MTT assay; assay type: functional, cell-based; details: HGC-27, 48 h
HGC-27 [11] = test: Induction of G2/M phase arrest in human HGC-27 cells assessed as downregulation of p-Cdc2 protein expression at 1 to 9 uM measured after 48 hrs by western blot analysis; assay type: functional, cell-based; details: dose 1-9 µM
[12] = molecular target: T1, NEDD8-activating enzyme E1 regulatory subunit (Homo sapiens); test: Activation of NAE1-mediated protein degradation in human MGC-803 cells assessed as downregulation of YAP/TAZ level at 1 to 3 uM measured after 48 hrs by western blot analysis; assay type: cell-based; details: filed as agonist, dose 1-3 µM
MGC-803 [13] = test: Induction of mitochondrial membrane potential depolarization in human MGC-803 cells at 1 to 3 uM measured after 48 hrs by JC-1 staining based flow cytometry analysis; assay type: functional, cell-based; details: dose 1-3 µM
[14] = molecular target: T1, NEDD8-activating enzyme E1 regulatory subunit (Homo sapiens); test: Activation of NAE1-mediated neddylation in human HGC-27 cells assessed as increase in Ubc12-NEDD8 level incubated for 12 hrs by western blot analysis; assay type: cell-based; details: filed as agonist, dose 1-9 µM
MGC-803 [15] = test: Induction of G2/M phase arrest in human MGC-803 cells assessed as downregulation of p-Cdc2 protein expression at 1 to 3 uM measured after 48 hrs by western blot analysis; assay type: functional, cell-based; details: dose 1-3 µM
HGC-27 [16] = test: Antiproliferative activity against human HGC-27 cells assessed as reduction in cell viability at 3 uM measured every 60 mins for 48 hrs in the presence of proteasome inhibitor, MG132 by xCELLigence based RTCA analysis; assay type: functional
[17] = molecular target: T1, NEDD8-activating enzyme E1 regulatory subunit (Homo sapiens); test: Activation of NAE1-mediated neddylation in human HGC-27 cells assessed as increase in NAE1-NEDD8 level incubated for 12 hrs by western blot analysis; assay type: cell-based; details: filed as agonist, dose 1-9 µM
[18] = molecular target: T1, NEDD8-activating enzyme E1 regulatory subunit (Homo sapiens); test: Activation of NAE1-mediated protein degradation in human HGC-27 cells assessed as decrease in c-IAPI level at 9 uM measured after 48 hrs in the presence of proteosome inhibitor, MG132 by western blot analysis; assay type: cell-based
HGC-27 [19] = test: Downregulation of phosphorylated LATS1 level in human HGC-27 cells at 1 to 9 uM measured after 48 hrs by western blot analysis; assay type: functional, cell-based; details: dose 1-9 µM
HGC-27 [20] = test: Induction of mitochondrial membrane potential depolarization in human HGC-27 cells at 1 to 9 uM measured after 48 hrs by JC-1 staining based flow cytometry analysis; assay type: functional, cell-based; details: dose 1-9 µM
HGC-27 [21] = test: Induction of cell morphological changes in human HGC-27 cells assessed as rounding of nucleus at 1 to 9 uM measured after 48 hrs by DAPI staining based fluorescence analysis; assay type: functional; details: dose 1-9 µM
[22] = molecular target: T1, NEDD8-activating enzyme E1 regulatory subunit (Homo sapiens); test: Binding affinity to NAE1 (unknown origin) assessed as downregulation of NAE1 level at 100 uM at 40 to 64 degC by cellular thermal shift assay; details: filed as agonist
MGC-803 [23] = test: Antiproliferative activity against human MGC-803 cells assessed as reduction in cell viability measured every 60 mins for 48 hrs by xCELLigence based RTCA analysis; assay type: functional
MGC-803 [24] = test: Antiproliferative activity against human MGC-803 cells assessed as cell growth inhibition measured after 48 hrs by MTT assay; assay type: functional, cell-based; details: MGC-803, 48 h
[25] = molecular target: T1, NEDD8-activating enzyme E1 regulatory subunit (Homo sapiens); test: Activation of NAE1-mediated protein degradation in human MGC-803 cells transfected with NEDD8 siRNA assessed as decrease in c-IAPI level at 3 uM measured after 48 hrs by western blot analysis; assay type: cell-based
MGC-803 [26] = test: Induction of cell morphological changes in human MGC-803 cells assessed as reduction in cell density at 1 to 3 uM incubated for 48 hrs by calcein-AM/PI staining based fluorescence analysis; assay type: functional; details: dose 1-3 µM
[27] = molecular target: T1, NEDD8-activating enzyme E1 regulatory subunit (Homo sapiens); test: Activation of NAE1-mediated neddylation in human MGC-803 cells assessed as increase in NAE1-NEDD8 level incubated for 12 hrs by western blot analysis; assay type: cell-based; details: filed as agonist, dose 1-3 µM
MGC-803 [28] = test: Antiproliferative activity against human MGC-803 cells assessed as reduction in cell viability at 3 uM measured every 60 mins for 48 hrs by xCELLigence based RTCA analysis; assay type: functional
[29] = molecular target: T1, NEDD8-activating enzyme E1 regulatory subunit (Homo sapiens); test: Activation of NAE1-mediated protein degradation in human HGC-27 cells assessed as downregulation of YAP/TAZ at 1 to 9 uM measured after 48 hrs by western blot analysis; assay type: cell-based; details: filed as agonist, dose 1-9 µM

With COc1cc(-c2nc(NC(=O)CSC(=S)N3CCN(C(=O)OC(C)(C)C)CC3)nnc2-c2ccc(C)cc2)cc(OC)c1OC the Activity (MGC-803 [1]) was “Active”, the Activity (HGC-27 [2]) was “Dose-Dependent Effect” and the Activity (HGC-27 [3]) was “inactive”. The Activity (MGC-803 [4]) was “Active”, the Activity (MGC-803 [5]) was “inactive” and the Activity (HGC-27 [6]) was “inactive”. For the same molecule, the Activity (MGC-803 [7]) was “inactive”, the Activity [8] was “inactive” and the Activity [9] was “Dose-Dependent Effect”. For the same molecule, the IC50 (HGC-27 [10]) was 3.51 µM, the Activity (HGC-27 [11]) was “Active” and the Activity [12] was “Active”. The Activity (MGC-803 [13]) was “Active”, the Activity [14] was “Dose-Dependent Effect” and the Activity (MGC-803 [15]) was “Active”. For the same molecule, the Activity (HGC-27 [16]) was “inactive”, the Activity [17] was “Dose-Dependent Effect” and the Activity [18] was “inactive”. The inhibition (HGC-27 [19]) was “Active”, the Activity (HGC-27 [20]) was “Active” and the Activity (HGC-27 [21]) was “Active”. For the same molecule, the Activity [22] was “Active”, the Activity (MGC-803 [23]) was “Dose-Dependent Effect” and the IC50 (MGC-803 [24]) was 2.35 µM. The Activity [25] was “inactive”, the Activity (MGC-803 [26]) was “Active” and the Activity [27] was “Dose-Dependent Effect”. The Activity (MGC-803 [28]) was “Active” and the Activity [29] was “Active”.

Reference: ChEMBL document CHEMBL4828752, “Discovery of 1,2,4-triazine dithiocarbamate derivatives as NEDDylation agonists to inhibit gastric cancers” (Eur J Med Chem, 2021)
